One data set deals with IMQ induced psoriasis. The procedure: Test Item Details • 1. Dexamethasone Cat. or Batch no.: BCBM4557V (sigma) • Vehicle for dexamethasone (Veh.1): acetone:ethanol (1:1) • Dose: 0.1 mg/ear & 0.25 mg in back skin • Dose volume: 20 μL/ear & 50 μL on back skin • 2. Crisaborole: PZ0037 (Sigma) • Vehicle (Veh.1): acetone:ethanol (1:1) • Dose: 0.1 mg/ear & 0.25 mg in back skin • Dose volume: 20 μL/ear, 50 μL on back skin • 3. Compound of Formula (I) • Vehicle (Veh.1): acetone:ethanol (1:1) • Dose: 0.1 mg/ear & 0.25 mg in back skin • Dose volume: 20 μL/ear, 50 μL on back skin Dexamethasone and Test Item Preparation and Application: • Strength=5 mg/ml
Application=100 μg/20 pit per each ear+250 μg/50 μL on the back G2 to G4 receive Dexamethasone, Crisaborole or test item: Daily topical treatment (D0-D6): 0.1 mg in 20 μl per ear x both the ears+0.25 mg in 50 μl (on the back) 6-8 hrs after IMQ application.
Disease Induction: Application of 5% IMQ cream 40 mg (back) and 5 mg (per ear—Inner surface) daily from day 0-6.
Treatment: 0.5% Dexamethasone solution: 0.25 mg (back) and 0.1 mg (per ear) 8 hrs post IMQ. • Day −2—Depilation on back region • Day 0—Observations (Body weight; ear thickness using digital microcaliper) • Day 2—Observations (Body weight; ear thickness using digital microcaliper) • Day 4—Observations (Body weight; ear thickness using digital microcaliper) • Day 6—Observations (Body weight; ear thickness using digital microcaliper); Blood collection (PK) and Termination {2 hrs after last dose) • Ear collection: PK, Cytokine, MPO, Thickness • Back skin collection, scoring and thickness measurement • Histopathology (optional)
The dorsal posterior area (2 cm×2 cm) of animals is depilated using a hair trimmer. 5% Imiquimod cream: 50 mg/animal (40 mg on the shaved back+5 mg each on the inner part of right and left ear) QD is applied on days 0 to 5 (Groups 1-4).
The body weight is recorded individually for all animals at receipt, day of randomization, prior to treatment, and once in two days thereafter. The animals are observed for mortality at regular intervals.
2 hrs post compound treatment on day 6, all the animals are euthanized, and ear tissues are collected. The right ear is flash frozen in liquid nitrogen and stored at −80° C. until homogenization for MPO and cytokine estimation.
The half of the left ear is used for drug concentration measurement. The other half of the left ear tissue is used for histopathology. The back skin is collected for visual assessment (scoring) and histopathology.
MPO analysis: Snap frozen ear tissue samples are homogenized in 1× assay buffer provided in the kit. The homogenates are centrifuged at 8000 g for 10 minutes in a refrigerated centrifuge. The supernatants are discarded, and the pellet is resuspended in solubilisation buffer (1× assay buffer containing 0.5% HTABr). The samples are homogenized and subjected to three rounds of freeze thaw followed by brief sonication for 10s. The samples are centrifuged at 12,000 g for 10 minutes in a refrigerated centrifuge and the resulting supernatants are analysed for MPO levels based on a fluorometric detection kit. The Kit utilizes a non-fluorescent detection reagent, which is oxidized in the presence of hydrogen peroxide and MPO to produce its fluorescent analogue. (Enzo Life Sciences; ADI-907-029).
Histopathology: At study termination, posterior dorsal skin and ear skin samples are collected. Skin samples are processed using routine histopathological methods and 4-5 μm paraffin sections are prepared. Tissue sections (3 serial sections/animal) are stained with Hematoxylin and eosin (H&E) to evaluate acanthosis, hyper/parakeratosis and inflammatory cellular infiltration in dermis. Severity of lesions are assessed semi quantitatively on a scale of 0-4 by two independent pathologists (0—normal, 1—mild degree, 2—moderate degree, 3—severe degree and 4—extensive or multiple locations) for each parameter in a blinded manner.

The target in a further data set is T1, Phosphodiesterase PDE5A (Homo sapiens, UniProt O76074).
T1 construct: host or cells: insect Sf9 cells
The data set is described as follows: Phosphodiesterase PDE5A enzyme assay. The class given is biochemical. Particulars: N=2, Example 3. From the text: Reference standards are run as an integral part of each assay to ensure the validity of the results obtained. Reference Compounds: • Phosphodiesterase PDE10A2 Papaverine • Phosphodiesterase PDE11A4 Dipyridamole • Phosphodiesterase PDE1A MMPX • Phosphodiesterase PDE2A EHNA • Phosphodiesterase PDE3A Cilostamide • Phosphodiesterase PDE4A1A Rolipram • Phosphodiesterase PDE4B1 Rolipram • Phosphodiesterase PDE5A Zaprinast • Phosphodiesterase PDE6 Zaprinast • Phosphodiesterase PDE7A IBMX • Phosphodiesterase PDE7B IBMX • Phosphodiesterase PDE8A1 Dipyridamole • Phosphodiesterase PDE9A2 Zaprinast
Phosphodiesterase PDE1A; Phosphodiesterase PDE5A; and Phosphodiesterase PDE9A2: • Source: Human recombinant insect Sf9 cells • Substrate: 0.10 μM […] • Vehicle: 1.00% DMSO • Significance Crit.: ≥50% of max stimulation or inhibition • Incubation Buffer: 10 mM Tris-HCl, pH 7.2, 10 mM MgCl2, 0.05% NaN3, 0.1% phosphate-free BSA • Quantitation Method: Quantitation of Fluorescein-GMP-IMAP • Pre-Incub. Time/Temp: 15 minutes @25° C. • Incubation Time/Temp: 30 minutes @25° C.
IC50 values are determined by a non-linear, least squares regression analysis using MathIQ™ (ID Business Solutions Ltd., UK). […] Where presented, the Hill coefficient (nH), defining the slope of the competitive binding curve, is calculated using MathIQ™. […]

Where [1] appears, read: topical 0.5%, ear skin, vs IMQ control.
[2] abbreviates: topical 0.5%, maximum score 16, vs IMQ control.

For `CNc1nc(Nc2ccccc2)nc(OCC(F)(F)C(F)F)n1` [compound of Formula (I), N^2-methyl-N^4-phenyl-6-(2,2,3,3-tetrafluoropropoxy)-1,3,5-triazine-2,4-diamine], in the data set on IMQ induced psoriasis (day 6, topical 0.5%, vs IMQ control), the “MPO activity in ear tissue homogenates” value is reported as “do not show significant inhibition”. Moreover, the Back skin thickness entry in the data set on IMQ induced psoriasis (day 6 at termination, topical 0.5%, vs IMQ control) is recorded as “do not show significant reduction”. Further, in the data set with IMQ induced psoriasis (mouse, in vivo), the “Body weight / body weight loss” value is given as “significantly less”. For the same compound, the “Cumulative clinical scores (erythema, skin thickness, scales)” value in the data set on IMQ induced psoriasis (topical 0.5%, back skin, maximum score 12, vs IMQ control) is given as “does not show any significant reduction”. In addition, the “Extent of acanthosis, back skin (histopathology)” value in the data set with IMQ induced psoriasis (topical 0.5%, back skin, vs IMQ control) is reported as “reduction”. Besides, the Ear thickness entry in the data set with IMQ induced psoriasis (topical 0.5%, daily, vs IMQ control) is recorded as “significant reduction in ear thickness on day 6”. Besides, in the data set with IMQ induced psoriasis (setting [1]), the “Cellular infiltration, ear (histopathology)” value is given as “significant reduction” and the “Extent of acanthosis, ear (histopathology)” value was “significant reduction”. In the data set with IMQ induced psoriasis (setting [2]), the “Cumulative HP score of back skin” value was “significant reduction” and the “Overall cumulative HP scores of ear skin” value is on record as “significant reduction”. For the same compound, in the data set with IMQ induced psoriasis (topical 0.5%, vs IMQ control), the “Spleen weight or normalized spleen weight” value is listed as “do not show significant reduction”. Further, the “Cytokine levels in ear tissue homogenates” value in the data set on IMQ induced psoriasis (topical treatment, vs IMQ control) is on record as “significant reduction in few of the proinflammatory cytokines”. This compound also displayed an inhibition at 10 µM against Phosphodiesterase PDE5A of 27%.

Broadly, the inhibition is how much of the control response was suppressed. A lower inhibition goes with a response near the control.

(Values after patent US12622915B2, “Methods of treating PDE IV-mediated diseases or conditions” (Vanda Pharmaceuticals Inc., priority 2020, dated 2026).)
